In test [1] the test system is clpB-luxCDABE gene fusion. As to conditions: 38 min; for Response Ratio: 4% ethanol; for Light production in LB + 4% ethanol: 37° C. The protocol:
Plasmid DNA was isolated from lux-a.pk043.d3, digested with restriction enzyme XmaI, and ligated with T4 DNA ligase. The ligation reaction was used to transform E. coli strain DPD1675 by electroporation. Transformants were selected by ampicillin resistance. […] Actively growing cultures at 37° C. in LB medium were treated with 4% ethanol arid light production was quantitated at 37° C. using a microplate luminometer (Dynex ML3000). Table 17 summarizes the average bioluminescence of duplicate samples at 38 min after treatment.

The next test has as its system SOS regulon gene fusions. Briefly: Stress response of SOS regulon luxCDABE gene fusions (nalidixic acid). In kind it is cell-based, E. coli. As to conditions: SOS regulon gene fusions; 5, 4, or 3% (v/v) ethanol. How it is done:
(§1) To test the stress responses, one or two single colonies of each selected strain were used to inoculate 5.0 ml of LB medium containing 150 μg/ml of ampicillin. These cultures were grown overnight at 37° C. then diluted by adding 50 μl or 100 μl of the overnight culture into 10.0 ml of fresh LB medium (without ampicillin) and grown with agitation at 37° C. until the culture was in exponential phase with readings on a Klett-Summerson colorimeter containing the red filter of between 10 and 40. These actively growing cultures were immediately used to initiate a stress response experiment by adding 50 μl of cultures to 50 μl of LB medium containing various concentrations of chemical in the wells a 96 well luminometer plate. This division of the actively growing culture at the time of chemical addition ensured identical populations were present when the stress was imposed. Light production was measured in a Dynex ML3000 luminometer at 37° C. The dimensionless units of light production, relative light units (RLU), are obtained by comparison with the light reading from an internal light-emitting diode. The cycle mode of the ML3000 luminometer, similar to previous descriptions (Van Dyk et al., Appl. Environ. Microbiol. 60:1414-120) was used.
The ability of these promoter-luxCDABE fusions to report activation of the SOS stress response was tested using nalidixic acid, a known, potent chemical inducer. The final concentrations of nalidixic acid were 1, 5, 25, and 125 μg/ml for all but strain DPD2293, which was tested at 80, 40, 20, 10, 5, 2.5, and 1.25 μg/ml.
Specificity of responses was tested by measuring the effect of ethanol on these SOS regulon gene fusions.

The subject of test [2] is heat shock regulon gene fusions. Briefly: Stress response of heat shock regulon luxCDABE gene fusions (ethanol). In kind it is cell-based, E. coli. As to conditions: for 3% Ethanol Response ratio: 40 minutes, LB, treated/untreated. How it is done:
as §1, with “used. […]” for “used.”

The subject of test [3] is luxCDABE gene fusions in lexA+ host. Briefly: Mitomycin C and nalidixic acid responses in lexA+ host. As to conditions: for MitC Ratio, 2 hr 250 ng/ml: lexA+ host. In kind it is cell-based, E. coli. How it is done:
(§2) In addition, the effect of a lexAind mutation was tested to determine if any of these were part of the SOS regulon. The expectation is that SOS regulon member will be induced by both nalidixic acid and mitomycin C in a manner that is dependent on lexA function (Walker, G. C., (1996) Escherichia coli and Salmonella: Cellular and Molecular Biology ASM Press). […] This is consistent with the observation of upregulation of the b1728 mRNA transcript upon mitomycin C treatment in a LexA dependent fashion (Fernández de Henestrosa et al. (2000). Mol. Microbiol. 35:1560-1572). Likewise, two Gene fusions, those to oraA and yigN were identified is new members of the SOS regulon (Table 16). […] Negative, non-DNA damage responsive gene fusions were also included (Table 16).

Test [4] concerns luxCDABE gene fusions of the Lux-A Collection. Briefly: Induction of Lux-A Collection gene fusions by MMC (and yebF fusion by nalidixic acid). The format is cell-based, E. coli. How it is done:
The Lux-A Collection of reporter gene fusions was examined for presence of fusions to the genes in Table 11. […] Each of these was tested for induction by MMC at several doses over a time course of 100 minutes.
As expected, the expression of the known SOS genes was elevated; however the expression of several was elevated less than 2-fold (Table 12) and as such were within a large group of 792 genes the expression of which was elevated by 20% or more. Most of these are likely due to artifacts in the array data rather than to actual biologically relevant responses. To test if strains carrying luxCDABE gene fusions would yield the expected positive result, the three gene fusions that were available in the Lux-A Collection of reporter gene fusions were tested for mitomycin C responses.
In this case, a divergent promoter to the purT gene was present in the chromosomal fragment and strains containing the backward yebF fusion produced light. […] […] The orientation of the inserted segment to yield a fusion of yebF to the luxCDABE operon was confirmed by DNA sequence analysis.

In test [5] the test system is luxCDABE gene fusions in lexAind host. Briefly: Mitomycin C and nalidixic acid responses in lexAind host. In kind it is cell-based, E. coli. As to conditions: for MitC Ratio, 2 hr 250 ng/ml: lexAind host. How it is done:
as §2

The test system of test [6] is SoxR/S regulon gene fusions. Briefly: Stress response of SoxR/S regulon luxCDABE gene fusions (methyl viologen). In kind it is cell-based, E. coli. As to conditions: for Methyl viologen response ratio: 250 μg/ml, 120 minutes, LB, treated/untreated. How it is done:
Like the SOS and heat shock regulon fusions, these had basal light production greater than the promoterless parental plasmid indicating the presence of a promoter. Responsiveness of four of these strains to a known inducer of the SoxR/S regulon, methyl viologen, was tested at 1000, 500, 250, 125, 62, 31 and 16 μg/ml. […] Table 8 gives the response ratio for 250 μg/ml at 120 minutes of treatment for the four tested strains. Here again, the biologically appropriate response was observed.

Where [7] appears, read: lux-a.pk054.c3 (DPD2243), clpB fusion.
The mark [8] stands for this setting: 1pxA 1pxB rnhB dnaE fusion (lux-a.pk061.c3).
Where [9] appears, read: dinG ybiB fusion (lux-a.pk0024.f5).
The mark [10] stands for this setting: lacZ fusion (65.d4), negative control.
Setting [11] is: yciG fusion (lux-a.pk006.b4), negative control.

“And” between values parts separate entries of the source, which are not always exact repeats. Identical values can stand only once. Like-named read-outs stand apart in the source and are kept apart here.

Regarding `CCO` [Ethanol, ethanol], the “Response Ratio” value is 6.5 and 5.5 in test [1] (Inverted lux-a.pk043.d3 (two transformants)); 9.4 in test [1] (setting [7]). For the same molecule, the “Light production in LB + 4% ethanol” value in test [1] (lux-a.pk043.d3 (clpB promoter not operably linked)) is recorded as 0.0025 RLU; in test [1] (setting [7]), 13.00 RLU. For the same molecule, the “bioluminescence of SOS regulon gene fusions (specificity)” value with SOS regulon gene fusions was “little to no increased biolumninescence”. Also, the “3% Ethanol Response ratio” value in test [2] (clpB fusion, DPD2243 (lux-a.pk054.c3)) stood at 4.7; in test [2] (grpE fusion, DPD2241 (lux-a.pk057.h1)), 5.2; in test [2] (lon fusion, DPD2242 (lux-a.pk021.g11)), 5.6; in test [2] (rfaDFCL fusion, DPD2244 (lux-a.pk040.e4)), 1.4; in test [2] (rpoD fusion, DPD2246 (lux-a.pk089.e7)), 2.4. Besides, in test [2] (each of the six heat shock fusion strains, at least two of 5, 4, 3, 2 (v/v)% ethanol), the “bioluminescence compared with untreated culture” value was “increased bioluminescence”.
Consider `CO[C@@]12[C@H](COC(N)=O)C3=C(C(=O)C(C)=C(N)C3=O)N1C[C@@H]1N[C@@H]12` [MMC, mitomycin C], for which the “MitC Ratio, 2 hr 250 ng/ml” value is on record as 1.06 in test [3] (setting [8]); 8.97 in test [3] (b1728 fusion (lux-a.pk033.c5)); 1.22 in test [3] (b1936 fusion (lux-a.pk0019.g1)); 5.01 in test [3] (setting [9]); 1.12 in test [3] (fusion (lux-a.pk0015.d6)); 0.80 in test [3] (setting [10]). In addition, the “MitC Ratio, 2 hr 250 ng/ml” value was determined as 15.27 in test [3] (oraA fusion (lux-a.pk058.f5)); 1.02 in test [3] (yaaF fusion (lux-a.pk031.e7)); 0.56 in test [3] (setting [11]); 9.84 in test [3] (yigN fusion (lux-a.pk046.f11)); 1.29 in test [5] (setting [8]); 0.90 in test [5] (b1728 fusion (lux-a.pk033.c5)). In addition, the “MitC Ratio, 2 hr 250 ng/ml” value in test [5] (b1936 fusion (lux-a.pk0019.g1)) amounted to 2.46; in test [5] (setting [9]), 1.15; in test [5] (fusion (lux-a.pk0015.d6)), 1.73; in test [5] (setting [10]), 1.24; in test [5] (oraA fusion (lux-a.pk058.f5)), 1.21; in test [5] (yaaF fusion (lux-a.pk031.e7)), 0.99. The entries for the “MitC Ratio, 2 hr 250 ng/ml” value in test [5] (setting [11]) and in test [5] (yigN fusion (lux-a.pk046.f11)) were 0.61 and 0.93, respectively. Moreover, the “induction of b1728 promoter-luxCDABE fusion” value in test [3] (lexA+ host (FIG. 9)) is “clearly induced”; in test [5] (lexAind host strain (FIG. 9)), “not induced”. Further, the “Induction of Fusion” value in test [4] (b1847 (yebF)-luxCDABE fusion (when inverted), MMC) is given as “YES”; in test [4] (b1847 (yebF)-luxCDABE fusion (when inverted), MMC, listed as mitomycin C) it was “induction by mitomycin C was demonstrated”; in test [4] (dinB (dinP)-luxCDABE fusion, several doses of MMC, time course of 100 minutes) it was “YES”; in test [4] (dinF-luxCDABE fusion, MMC), “YES”; in test [4] (dinG-luxCDABE fusion, MMC), “YES”; in test [4] (recA-luxCDABE fusion, several doses of MMC, time course of 100 minutes) it was “YES”. Further, the “Induction of Fusion” value is given as “YES” in test [4] (ruvA-luxCDABE fusion, several doses of MMC, time course of 100 minutes); “YES” in test [4] (uvrA-luxCDABE fusion, several doses of MMC, time course of 100 minutes); “YES” in test [4] (uvrD-luxCDABE fusion, MMC).
On to `C[n+]1ccc(-c2cc[n+](C)cc2)cc1` [Methyl viologen, methyl viologen], for which, in test [6] (each of four SoxR/S fusion strains, each of 1000, 500, 250, 125, 62, 31 and 16 μg/ml), the “bioluminescence compared with untreated culture” value is listed as “induced increased bioluminescence”. For the same molecule, the “Methyl viologen response ratio” value came to 9.0 in test [6] (inaA fusion, DPD2087 (lux-a.pk014.a9)); 15.0 in test [6] (poxB fusion, DPD3509 (lux-a.pk071.all)); 4.7 in test [6] (ribA fusion, DPD2286 (lux-a.pk078.d2)); 3.6 in test [6] (zwf fusion, DPD2272 (lux-a.pk082.g7)).
